Experimental data reported in publication PMC6969910, “Repurposing Dihydropyridines for Treatment of Helicobacter pylori Infection” (Pharmaceutics, 2019).
≈ marks a conversion by molar mass, not a printed value. Read-outs that look alike come from different tables or passages of the source.

How the values were obtained:
[1] = system: H. pylori ATCC 700392; assay: MIC/MBC by broth microdilution, strain ATCC 700392; type: cell-based; settings: Helicobacter pylori, ATCC700392; for MBC: ATCC 700392; for MIC: ATCC 700392, 72 h
[2] = system: H. pylori ATCC 43504 (metronidazole-resistant); assay: MIC/MBC by broth microdilution, strain ATCC 43504 (MTZ-R); type: cell-based; settings: Helicobacter pylori; for MBC: ATCC43504; for MIC: ATCC43504, 72 h
[3] = system: H. pylori ATCC 700684 (clarithromycin resistant); assay: MIC/MBC by broth microdilution, strain ATCC 700684 (CLR-R); type: cell-based; settings: Helicobacter pylori; for MBC: ATCC700684; for MIC: ATCC700684, 72 h
[4] = target: T1, H. pylori HsrA response regulator (Helicobacter pylori, UniProt O25684); type: biochemical; settings: EMSA; for Inhibition of the DNA binding activity of HsrA: 6 µM HsrA, 120 ng target promoter, 0.1 to 2 mM DHP; for Inhibition of HsrA activity at 100 μM: 100 μM drug, 6 μM HsrA
Protocol: The in vitro biological activity of the H. pylori HsrA response regulator and its potential inhibition by DHP drugs were assessed by electrophoretic mobility shift assay (EMSA) as previously described. Briefly, 120 ng of target DNA (promoter region of the H. pylori porGDAB operon) was mixed with 6 µM of recombinant HsrA [17] in the presence of increasing concentrations (0.1 to 2 mM) of selected DHP drugs. Mixtures of DNA and protein in a 20 μL reaction volume containing 10 mM bis-Tris (pH 7.5), 40 mM KCl, 100 mg/L BSA, 1 mM DTT and 5% glycerol were incubated at room temperature for 20 min and then separated by 6% native polyacrylamide gel electrophoresis. A 150 bp fragment of the Anabaena sp. PCC 7120 gene pkn22 was included as non-specific competitor DNA in all assays. EMSA gels were stained with SYBR Safe® (Thermo Fisher Scientific, Bothell, WA, USA) and analyzed using the Bio-Rad Gel Doc 2000 imaging system.

[5] = target: T1, H. pylori HsrA response regulator; assay: biochemical; type: binding; settings: for n (binding stoichiometry): absolute error 0.06; for ΔG: absolute error 0.2 kcal/mol; for ΔH: absolute error 0.4 kcal/mol
Protocol: Thermodynamic parameters of the molecular interaction between HsrA and its DHP-class inhibitors were analyzed by isothermal titration calorimetry (ITC) using an AutoiTC200 calorimeter (MicroCal, Malvern Instruments, Malvern, Worcestershire, UK). A solution of 20 µM of the protein in 50 mM Tris-HCl [pH 8], 150 mM NaCl, 10% glycerol, 1% DMSO was titrated with 200 µM of the corresponding ligand (DHP) dissolved in the same buffer at 25 °C. A total of 19 injections of 2 μL was added sequentially to the sample cell after 150 s spacing to ensure that the thermal power returned to the baseline before the next injection. Dissociation constants and binding enthalpies were calculated by non-linear least squares regression data analysis using the software package Origin 7.0 (OriginLab, Northampton, MA, USA).

[6] = system: H. pylori ATCC 700684 (CLR-R); assay: Checkerboard assay with clarithromycin, strain ATCC 700684; type: cell-based, Helicobacter pylori
Protocol: (§1) Antibacterial synergies of selected DHPs in combination with first-line anti-H. pylori antibiotics were tested by the checkerboard assay. Using 96-well flat-bottom microtiter plates, we assayed the antibacterial effect of the interaction of a range of 2-fold dilutions of clarithromycin or metronidazole with a range of 2-fold dilutions of each selected DHP. Serial dilutions of both antimicrobials (antibiotic and DHP) were firstly prepared using two different sterile microtiter plates, one compound was diluted along the rows in a first plate, and the other compound was diluted along the columns of a second plate. Then, both gradients were mixed in a third microtiter plate and inoculated with a freshly prepared bacterial suspension of H. pylori at 2 × 10^6 CFU/mL in BHI+FBS. Plates were incubated for 48 h at 37 °C under microaerobic conditions. […] The interaction between drugs was determined by calculating the fractional inhibitory concentration index (FICI) as: FICA (MICA in the presence of B/MICA alone) + FICB (MICB in the presence of A/MICB alone).

[7] = system: Mouse; settings: cited from earlier work
[8] = system: H. pylori strain ATCC 700684; assay: Time-kill kinetics assay; type: cell-based, Helicobacter pylori; settings: 2 × MIC
Protocol: Time–kill curves for selected DHP drugs were determined using the H. pylori strain ATCC 700684 [17]. […] DMSO instead of drugs was included as control. Colony forming units (CFUs) were determined after 4, 8, and 24 h of drug exposition by culturing on Blood Agar Base No.2 supplemented with 8% defibrinated horse blood for 72 h under microaerobic conditions. Each determination was performed twice in triplicate and the results were presented as log10 CFU/mL versus incubation time. Statistical analysis was performed using the Mann–Whitney U test. A p value smaller than 0.05 was considered significant.

[9] = system: H. pylori essential response regulator HsrA; design: method as in PMID 31383920; settings: binds native state of HsrA; cited from earlier work
[10] = system: Mouse; assay: Mouse oral median lethal dose (LD50); type: in vivo; settings: oral dose 100 mg/kg/day versus mouse oral LD50
[11] = system: H. pylori ATCC 43504 (MTZ-R); assay: Checkerboard assay with metronidazole, strain ATCC 43504; type: cell-based, Helicobacter pylori
Protocol: as §1

[12] = system: H. pylori strain PMSS1; assay: H. pylori gastric colonization in C57BL/6 mice (bacterial counts and qPCR); type: in vivo, Helicobacter pylori (in C57BL/6 mice); settings: PMSS1, oral 100 mg/kg/day marketed formulation + omeprazole 140 mg/kg/day, 7 days, vs infected non-treated
[13] = target: T1, H. pylori HsrA response regulator; design: method as in PMID 31383920; settings: previous work; cited from earlier work
[14] = system: different strains of H. pylori; design: method as in PMID 31383920; settings: including metronidazole- and clarithromycin-resistant strains; cited from earlier work
[15] = ITC, 25 °C, pH 8, relative error 40%, read-out: Kd

T1 sequence (O25684 entry or part of it): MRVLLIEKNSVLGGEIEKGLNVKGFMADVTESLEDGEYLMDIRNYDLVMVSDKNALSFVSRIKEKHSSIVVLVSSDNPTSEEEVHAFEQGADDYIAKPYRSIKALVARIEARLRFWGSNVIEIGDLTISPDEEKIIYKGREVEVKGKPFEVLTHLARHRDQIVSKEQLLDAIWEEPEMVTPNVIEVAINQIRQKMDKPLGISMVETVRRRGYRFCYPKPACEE

| Structure (SMILES) | MBC [1] [µg/mL] | MIC [1] [µg/mL] | MBC [2] [µg/mL] | MIC [2] [µg/mL] | MBC [3] [µg/mL] | MIC [3] [µg/mL] | Inhibition of the DNA binding activity of HsrA [4] | n (binding stoichiometry) ([5]; ITC, 25 °C, pH 8) | ΔG ([5]; ITC, 25 °C, pH 8) [kcal/mol] | ΔH ([5]; ITC, 25 °C, pH 8) [kcal/mol] | Mouse LD50 (mg/kg, oral) ([7]; ref PubChem) [mg/kg] | Inhibition of the biological activity of HsrA [13] | Bactericidal activity against different strains of H. pylori [14] | also measured |
| --- | --- | --- | --- | --- | --- | --- | --- | --- | --- | --- | --- | --- | --- | --- |
| CC[C@H]1OC(=O)[C@H](C)[C@@H](O[C@H]2C[C@@](C)(OC)[C@@H](O)[C@H](C)O2)[C@H](C)[C@@H](O[C@@H]2O[C@H](C)C[C@H](N(C)C)[C@H]2O)[C@](C)(OC)C[C@@H](C)C(=O)[C@H](C)[C@@H](O)[C@]1(C)O [Clarithromycin] | ≤ 0.12 | ≤ 0.12 | ≤ 0.12 | ≤ 0.12 | 32 (≈ 42.8 µM) | 16 (≈ 21.4 µM) |  |  |  |  |  |  |  |  |
| COC(=O)C1=C(C)NC(C)=C(C(=O)OC(C)(C)CN(C)CCC(c2ccccc2)c2ccccc2)C1c1cccc([N+](=O)[O-])c1 (centres unmarked) [Lercanidipine] | 8 (≈ 13.1 µM) | 8 (≈ 13.1 µM) | 64 (≈ 105 µM) | 32 (≈ 52.3 µM) | 8 (≈ 13.1 µM) | 8 (≈ 13.1 µM) | noticeably inhibited | 0.81 | -6.4 | -4.8 |  |  |  | Kd [5, 15]: 20 µM; FICantibiotic ([6]; clarithromycin in combination with DHP, ATCC 700684 (CLR-R)): 0.0625; Reduction of the MIC value of clarithromycin ([6]; in combination with DHP, ATCC 700684): up to 16 times; Mouse LD50 (mg/kg, oral) [7]: 622 mg/kg |
| Cc1ncc([N+](=O)[O-])n1CCO [Metronidazole] | 2 (≈ 11.7 µM) | 1 (≈ 5.84 µM) | 128 (≈ 748 µM) | 64 (≈ 374 µM) | 2 (≈ 11.7 µM) | 1 (≈ 5.84 µM) |  |  |  |  |  |  |  |  |
| COC(=O)C1=C(C)NC(C)=C(C(=O)OCCN(C)Cc2ccccc2)C1c1cccc([N+](=O)[O-])c1 (centres unmarked) [Nicardipine] | 8 (≈ 16.7 µM) | 8 (≈ 16.7 µM) | 8 (≈ 16.7 µM) | 8 (≈ 16.7 µM) | 8 (≈ 16.7 µM) | 8 (≈ 16.7 µM) | noticeably inhibited | 0.72 | -7.5 | -2.0 | 305 |  |  | Inhibition of HsrA activity at 100 μM [4]: partially inhibited; Kd [5, 15]: 3 µM; Decline in bacterial counts (time-kill kinetics) compared to other DHPs [8]: significantly faster; Killing effect after 4 h of exposition [8]: completely lethal; Effect on HsrA conformational stability (thermal shift) [9]: increased the protein conformational stability |
| COC(=O)C1=C(C)NC(C)=C(C(=O)OC)C1c1ccccc1[N+](=O)[O-] [Nifedipine] | 8 (≈ 23.1 µM) | 8 (≈ 23.1 µM) | 16 (≈ 46.2 µM) | 16 (≈ 46.2 µM) | 8 (≈ 23.1 µM) | 8 (≈ 23.1 µM) |  |  |  |  |  |  |  | Decline in bacterial counts (time-kill kinetics) compared to other DHPs [8]: significantly slower |
| COCCOC(=O)C1=C(C)NC(C)=C(C(=O)OC(C)C)C1c1cccc([N+](=O)[O-])c1 (centres unmarked) [Nimodipine] | 8 (≈ 19.1 µM) | 8 (≈ 19.1 µM) | 32 (≈ 76.5 µM) | 16 (≈ 38.2 µM) | 4 (≈ 9.56 µM) | 4 (≈ 9.56 µM) | noticeably inhibited | 0.71 | -7.3 | -2.1 | 940 |  |  | Treatment dose, times lower than LD50 [10]: 9.4 times; Kd [5, 15]: 4.1 µM; Reduction of the MIC value of metronidazole ([11]; in combination with DHP, ATCC 43504): up to 8 times; FICantibiotic ([11]; metronidazole in combination with DHP, ATCC 43504 (MTZ-R)): 0.125; H. pylori gastric colonization, bacterial counts (CFU/mg of stomach) [12]: significantly reduced; H. pylori gastric colonization, qPCR (bacteria per 10,000 murine cells) [12]: significantly reduced |
| COC(=O)C1=C(C)NC(C)=C(C(=O)OCC(C)C)C1c1ccccc1[N+](=O)[O-] (centres unmarked) [Nisoldipine] | 4 (≈ 10.3 µM) | 4 (≈ 10.3 µM) | 16 (≈ 41.2 µM) | 16 (≈ 41.2 µM) | 4 (≈ 10.3 µM) | 4 (≈ 10.3 µM) | noticeably inhibited | 0.70 | -6.8 | -2.2 | 411 |  |  | Inhibition of HsrA activity at 100 μM [4]: partially inhibited; Kd [5]: 11 µM; Decline in bacterial counts (time-kill kinetics) compared to other DHPs [8]: significantly faster; Killing effect after 4 h of exposition [8]: completely lethal |
| CCOC(=O)C1=C(C)NC(C)=C(C(=O)OC)C1c1cccc([N+](=O)[O-])c1 (centres unmarked) [Nitrendipine] | 8 (≈ 22.2 µM) | 8 (≈ 22.2 µM) | 16 (≈ 44.4 µM) | 16 (≈ 44.4 µM) | 8 (≈ 22.2 µM) | 8 (≈ 22.2 µM) | noticeably inhibited | 0.75 | -6.9 | -2.6 | 2540 |  |  | Treatment dose, times lower than LD50 [10]: 25.4 times; Kd [5]: 9 µM; H. pylori gastric colonization, bacterial counts (CFU/mg of stomach) [12]: significantly reduced; H. pylori gastric colonization, qPCR (bacteria per 10,000 murine cells) [12]: significantly reduced |
| O=c1cc(-c2ccc(O)cc2)oc2cc(O)cc(O)c12 [apigenin] |  |  |  |  |  |  |  |  |  |  |  | noticeably inhibited | strong bactericidal activities |  |
| O=c1cc(-c2ccccc2)oc2cc(O)cc(O)c12 [chrysin] |  |  |  |  |  |  |  |  |  |  |  | noticeably inhibited | strong bactericidal activities |  |
| COc1ccc([C@@H]2CC(=O)c3c(O)cc(O)cc3O2)cc1O [hesperetin] |  |  |  |  |  |  |  |  |  |  |  | noticeably inhibited | strong bactericidal activities |  |
| O=c1c(O)c(-c2ccc(O)cc2)oc2cc(O)cc(O)c12 [kaempferol] |  |  |  |  |  |  |  |  |  |  |  | noticeably inhibited | strong bactericidal activities |  |
